Consider one compound from patent US20130137767A1, “Methods and Compositions for Treating Arthritis with Docosahexaenoic Acid” (DSM IP ASSETS B.V., priority 2010, published 2013).

SMILES strings stand for the structures.

Type in all cases: in vivo, Male DBA/1O1aHsd mice
Data set [1] concerns anti-collagen antibodies. The data set is described as follows: CIA-EE (Example 1): anti-collagen antibody production. The conditions noted are these: measured day 21 and day 45, vs OA-EE placebo. Here is the method:
The appropriate ethyl esters were blended into the base diet to provide approximately 2500 and 5000 mg/kg polyunsaturated fatty acid (PUFA) per day. The human equivalent doses (HED) were approximately 12 g/day and 22 g/day, respectively. The 2500 mg/kg EE diets contained the following fat blend: 1 part flax, 12 parts HCOC and 23 parts HO-SAFF. The 5000 mg/kg EE diets contained a fat blend consisting of: 1 part flax, 5 parts HCOC and 20 parts HO-SAFF. All study diets provided a total of 7% fat. Animals were fed study diets for approximately 30 days prior to the first collagen injection at day 0 and remained on the diets until study termination (day 45). Animals in the No Disease control and Dexamethasone groups were fed the diet containing OA-EE. Following a second collagen injection on day 21, arthritis severity was scored daily. Blood samples were collected at day 21 and day 45. Joints, 6 per an animal, were collected for histology and pathology on day 45.
Anti-collagen antibody production was measured prior to the antigen challenge (day 21) and at study termination (day 45). […] Means (n=5)±SD. *p<0.05**p<0.01.

Data set [2] deals with Collagen-Induced Arthritis (CIA). As to the kind of experiment: CIA EE vs. TG (Example 2): paw, knee and six-joint histopathology. To be noted: day 45. Here is the method:
(§1) Male DBA/1O1aHsd mice were enrolled, quarantined, and feed study diets following the protocols described in Example 1 (CIA-EE Study). EE and TG oils were blended into the base diet to provide 2500 mg/kg PUFA per day (HED approximately 12 g/day). A single dose of PUFA per day (HED approximately 5 g/day). The 1000 mg/kg DHA-EE dose was equivalent to the amount of DHA administered in the DHA/EPA-EE blend. The fat blend the 2500 mg/kg EE diets consisted of approximately: 1 part flax, 12 parts HCOC and 23 parts HO-SAFF; 1000 mg/kg EE diet: 1 part flax, 12 parts HCOC and 32 parts HO-SAFF; 2500 mg/kg DHASCO® oil diet: 1 part flax, 8 parts HCOC, 17 parts HO-SAFF and 15 parts soybean oil; 2500 mg/kg DHA-S oil diet: 1 part flax, 5 parts HCOC, 16 parts HO-SAFF and 6 parts soybean oil. 2500 mg/kg DHA/EPA (Nordic Naturals fish oil) diet: 1 part flax, 21 parts HCOC, 18 parts HO-SAFF and 13 parts soybean oil. The monounsaturate control animals received a fat blend of 1 part flax, 7 parts HCOC and 25 parts HO-SAFF. All study diets provided a total of 7% fat. Animals in the No Disease control and Dexamethasone groups were fed the diet containing OA-EE. Mice received collagen injections on day 0 and day 21, as described previously. Blood samples were collected at day 21 and day 45. At day 45, joints were collected for histology and pathology. Placebo-treated diseased animals had histopathology changes, consistent with those seen in type II collagen induced arthritis, in most joints, with scores ranging from normal to severe. Microscopic alteration included infiltration of synovium and periarticular tissue with neutrophils and mononuclear inflammatory cells (inflammation), marginal zone pannus and bone resorption and cartilage damage (proteoglycan loss, chondrocyte death and collagen matrix destruction). Four-paw, knee and joint parameters were assigned a quantitative score 0=normal, 1=minimal, 2=mild, 3=moderate, 4=marked, 5=severe and a total score was determined per animal.

Data set [3] is described as follows: CIA EE vs. TG (Example 2): serum phospholipid fatty acid levels by FAME analysis. Here is the method:
as §1, with “pathology.” for “pathology. Placebo-treated diseased animals had histopathology changes, consistent with those seen in type II collagen induced arthritis, in most joints, with scores ranging from normal to severe. Microscopic alteration included infiltration of synovium and periarticular tissue with neutrophils and mononuclear inflammatory cells (inflammation), marginal zone pannus and bone resorption and cartilage damage (proteoglycan loss, chondrocyte death and collagen matrix destruction). Four-paw, knee and joint parameters were assigned a quantitative score 0=normal, 1=minimal, 2=mild, 3=moderate, 4=marked, 5=severe and a total score was determined per animal.”
Serum phospholipid fatty acid levels were determined by FAME analysis (FIG. 11). Treatment with DHASCO® or DHA-S oil elevated serum DHA levels 3-4 fold (p<0.001), as compared to the monounsaturated (placebo) control. DHA-EE treatment elevated DHA levels 3-5 fold (p<0.001), as compared to the OA-EE (placebo) control. DPAn6-TG and EE elevated DPAn6 levels 3-4 fold (p<0.001), as compared to the monounsaturated or OA-EE (placebo) control. Serum EPA levels were elevated approximately 30 fold (p<0.001) when fish oil or DHA/EPA-EE was administered, as compared to the monounsaturated or OA-EE (placebo) control. Serum EPA levels were also elevated by treatment with DHASCO® (p<0.001), DHA-S (p<0.05), or with DHA-EE (p<0.001), as compared to the monounsaturated or OA-EE (placebo) control. […] Treatment with either DHASCO® or DHA-EE (2500 mg/kg) reduced ARA levels by approximately 90% (p<0.001), as compared to the monounsaturated or OA-EE (placebo) control. […] Serum ARA levels were reduced to a lesser degree by DHA-S (24%, p<0.001), fish oil (37%, p<0.001) and DHA/EPA-EE (49%, p<0.001), as compared to the monounsaturated or OA-EE (placebo) control. Data shown represents 3 pooled animals per group. Means±SD. *p<0.05 ***p<0.001.

For data set [4], the system named is anti-collagen antibodies. As to the kind of experiment: CIA EE vs. TG (Example 2): serum anti-collagen antibodies. The conditions noted are these: for serum anti-collagen antibodies: day 21. The procedure: as §1, with “pathology.” for “pathology. Placebo-treated diseased animals had histopathology changes, consistent with those seen in type II collagen induced arthritis, in most joints, with scores ranging from normal to severe. Microscopic alteration included infiltration of synovium and periarticular tissue with neutrophils and mononuclear inflammatory cells (inflammation), marginal zone pannus and bone resorption and cartilage damage (proteoglycan loss, chondrocyte death and collagen matrix destruction). Four-paw, knee and joint parameters were assigned a quantitative score 0=normal, 1=minimal, 2=mild, 3=moderate, 4=marked, 5=severe and a total score was determined per animal.”
A reduction in serum anti-collagen antibodies also correlated with a reduction in disease severity. […] (FIG. 12).

Consider `CC/C=C\C/C=C\C/C=C\C/C=C\C/C=C\C/C=C\CCC(=O)OCC` [DHA-EE], for which the “level of plasma anti-collagen antibodies” value in data set [1] (2500 mg/kg) and in data set [1] (5000 mg/kg) was “reduced the level of anti-collagen antibodies” throughout. Further, the knee histopathology parameters entry in data set [2] (1000 mg/kg) is “not significantly affected”. Moreover, the paw histopathology parameters entry in data set [2] (1000 mg/kg) is listed as “not significantly affected”. Moreover, the six-joint histopathology parameters entry in data set [2] (1000 mg/kg) is reported as “not significantly affected”; in data set [2] (2500 mg/kg PUFA, FIG. 10) it was “significantly reduced towards normal”. Further, in data set [2] (2500 mg/kg PUFA, vs placebo control, FIG. 10), the “paw histopathology parameters (inflammation, pannus, cartilage damage, bone damage)” value was “reduced”. The “serum ARA levels, reduction vs OA-EE (placebo) control” value in data set [3] (1000 mg/kg) is listed as 77%. For the same compound, the “serum ARA levels, reduction vs monounsaturated or OA-EE (placebo) control” value in data set [3] (2500 mg/kg PUFA) was “approximately 90%”. Besides, in data set [3] (2500 mg/kg PUFA (DHA-EE dose not stated)), the “serum EPA levels, elevation vs monounsaturated or OA-EE (placebo) control” value was “elevated”. For the same compound, the “serum DHA levels, elevation vs OA-EE (placebo) control” value in data set [3] (dose not stated (1000 and 2500 mg/kg tested)) is given as 3-5 fold. Also, the serum anti-collagen antibodies result in data set [4] (1000 mg/kg) was “significantly reduced”; in data set [4] (2500 mg/kg PUFA, FIG. 12), “significantly reduced”. The “serum anti-collagen antibody levels” value in data set [4] (day 45, 2500 mg/kg PUFA, FIG. 12) is “significantly reduced”.
